Where a chain is given by its changes, count along the chain named. Where “and” joins values, the source holds several entries; their conditions need not be identical. Equal values may be shown once.
Columns and labels:
[1] = molecular target: T1, hTA1 b2N (Homo sapiens, UniProt Q96RJ0); test: GloSensor cAMP accumulation assay, b2N construct; format: cell-based; conditions: b2N, n=2
T1 construct: read by me as the first 25 residues of β2AR (N); expressed in transfected cells; host or cells: HEK293T

[2] = molecular target: T2, hTA1 C178S (Homo sapiens, UniProt Q96RJ0, C178S); test: GloSensor cAMP accumulation assay, C178S mutant; format: cell-based; conditions: for C178S - Normalized Luminescence Counts (N=2): log[Compound], single replicates
T2 construct: expressed in transfected cells; host or cells: HEK293T
T2 sequence (Q96RJ0 1-339 C178S): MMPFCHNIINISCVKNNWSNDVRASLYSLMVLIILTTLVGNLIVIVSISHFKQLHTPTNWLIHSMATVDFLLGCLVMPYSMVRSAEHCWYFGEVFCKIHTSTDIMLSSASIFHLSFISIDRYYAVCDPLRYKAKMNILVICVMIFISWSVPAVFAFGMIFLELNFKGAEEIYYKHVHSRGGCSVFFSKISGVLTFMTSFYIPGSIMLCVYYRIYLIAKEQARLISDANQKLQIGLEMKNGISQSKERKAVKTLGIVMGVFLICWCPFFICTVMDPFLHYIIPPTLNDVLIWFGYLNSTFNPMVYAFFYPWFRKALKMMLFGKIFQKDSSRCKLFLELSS

[3] = molecular target: T3, hTA1 T194A (Homo sapiens, UniProt Q96RJ0, T194A); test: GloSensor cAMP accumulation assay, T194A mutant; conditions: for cAMP accumulation response, individual replicate values of the concentration-response curve: hTA1 T194A, log[Agonist], Supplementary Figure 5 source data
T3 sequence (Q96RJ0 1-339 T194A): T2 sequence (Q96RJ0 1-339 C178S) with S178C, T194A

[4] = molecular target: T4, hTA1 R83H (Homo sapiens, UniProt Q96RJ0, R83H); test: GloSensor cAMP accumulation assay, R83H mutant; format: cell-based;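 also: cells transiently co-expressing hTA1 and a cAMP GloSensor, luminescence read 30 min after agonist addition at room temperature, concentration–response fitted by non-linear regression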
T4 construct: expressed in transfected cells; host or cells: HEK293T
T4 sequence (Q96RJ0 1-339 R83H): T2 sequence (Q96RJ0 1-339 C178S) with R83H, S178C

[5] = molecular target: T5, hTA1 V184P (Homo sapiens, UniProt Q96RJ0, V184P); test: GloSensor cAMP accumulation assay, V184P mutant; format: cell-based; conditions: for cAMP accumulation response, single replicate values (source data, Supplementary Figure 5): hTA1 V184P (N=2), log[Compound]
T5 construct: expressed in transfected cells; host or cells: HEK293T
T5 sequence (Q96RJ0 1-339 V184P): T2 sequence (Q96RJ0 1-339 C178S) with S178C, V184P

[6] = C178S, each row one experiment (N=2), 3 replicates

T1 sequence (Q96RJ0 with tags, fused parts or gaps): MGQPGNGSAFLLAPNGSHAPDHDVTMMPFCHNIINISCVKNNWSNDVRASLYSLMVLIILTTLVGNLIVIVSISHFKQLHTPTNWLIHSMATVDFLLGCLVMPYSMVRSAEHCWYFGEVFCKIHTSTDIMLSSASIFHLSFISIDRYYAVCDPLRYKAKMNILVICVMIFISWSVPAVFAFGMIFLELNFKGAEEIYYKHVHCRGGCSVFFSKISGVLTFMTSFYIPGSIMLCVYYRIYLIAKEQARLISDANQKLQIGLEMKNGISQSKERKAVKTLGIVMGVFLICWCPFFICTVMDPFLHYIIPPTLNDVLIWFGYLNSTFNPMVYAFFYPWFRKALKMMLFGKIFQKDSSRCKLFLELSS

With `NCCc1ccc(Oc2ccc(O)cc2)c(I)c1` [T1AM, 3-iodothyronamine] the “Span ± SEM (Emax normalized to β-PEA)” value [1] was 80.48, the “pEC50 ± SEM” value [1] was 6.65 ± 0.05 and the EC50 ([1]; read-out: EC50) was 224 nM. The “pEC50 values, Mean” value [2, 6] was 5.899 and 6.116, the “ΔpEC50 values (each mutant value - WT average), Mean” value [2, 6] was -0.2302 and -0.01318 and the “Span ± SEM (Emax normalized to β-PEA)” value ([2]; C178S, n=2) was 86.82 ± 7.63. For the same compound, the “pEC50 ± SEM” value ([2]; C178S, n=2) was 6.01 ± 0.05, the EC50 ([2]; C178S, n=2, read-out: EC50) was 983 nM and the “Emax values, Mean” value ([2]; C178S, β-PEA = 100, each row one experiment (N=2), 3 replicates) was 79.1908 and 94.4471. The “C178S - Normalized Luminescence Counts (N=2)” value ([2]; M = -5) was 73.1003 and 72.1657 and 63.8478 and 81.3738 and 108.419 and 79.3694, the “C178S - Normalized Luminescence Counts (N=2)” value ([2]; M = -5.522) was 52.0253 and 55.0627 and 58.1468 and 73.8647 and 83.1688 and 53.1323 and the “C178S - Normalized Luminescence Counts (N=2)” value ([2]; M = -6) was 32.3989 and 32.726 and 30.2026 and 62.7356 and 57.5001 and 49.3328. For the same compound, the “C178S - Normalized Luminescence Counts (N=2)” value ([2]; M = -6.522) was 18.0529 and 16.5576 and 18.9875 and 30.7245 and 26.2071 and 22.4375, the “C178S - Normalized Luminescence Counts (N=2)” value ([2]; M = -7) was 4.642 and 4.221 and 4.735 and 9.753 and 8.496 and 8.018 and the “C178S - Normalized Luminescence Counts (N=2)” value ([2]; M = -7.522) was 0.763 and 0.4359 and 0.01533 and 0.9572 and 2.124 and 0.4486. For the same compound, the “C178S - Normalized Luminescence Counts (N=2)” value ([2]; M = -8) was -0.8725 and -0.6389 and -0.8258 and 3.769 and 2.842 and 2.124, the “C178S - Normalized Luminescence Counts (N=2)” value ([2]; M = -8.522) was -0.6389 and -1.6202 and -1.667 and 1.376 and 0.02978 and -2.184 and the “C178S - Normalized Luminescence Counts (N=2)” value ([2]; M = -9) was -0.5921 and -1.854 and -1.48 and 0.05969 and 0.9871 and -1.316. For the same compound, the “C178S - Normalized Luminescence Counts (N=2)” value ([2]; M = -9.522) was -1.293 and -1.48 and -0.6389 and -0.03006 and -0.3591 and -0.4489, the “C178S - Normalized Luminescence Counts (N=2)” value ([2]; M = -10) was -0.2183 and -0.5454 and -0.966 and -0.5087 and 0.4187 and -1.556 and the “C178S - Normalized Luminescence Counts (N=2)” value ([2]; M = -10.522) was -0.7791 and -0.8258 and -0.8725 and -0.2993 and -0.5386 and -2.962. For the same compound, the “C178S - Normalized Luminescence Counts (N=2)” value ([2]; M = -11) was -1.433 and -0.8258 and -0.4987 and 1.047 and 0.4785 and -0.2993, the “C178S - Normalized Luminescence Counts (N=2)” value ([2]; M = -11.522) was -1.293 and -0.6389 and -1.059 and 2.124 and 1.1367 and -0.9276 and the “C178S - Normalized Luminescence Counts (N=2)” value ([2]; M = -12) was -0.1249 and -0.6856 and 0.06206 and -0.2096 and -0.5386 and -1.227. For the same compound, the “C178S - Normalized Luminescence Counts (N=2)” value ([2]; M = -12.522) was -0.7323 and -0.7791 and -0.8725 and 0.2691 and -0.419 and 0.299, the “pEC50 values, Mean” value ([3]; T149A (so in the source), single experiments (3 replicates each)) was 6.398 and 6.629 and 6.1942 and the “Emax values, Mean” value ([3]; T149A (so in the source), single experiments (3 replicates each), β-PEA = 100) was 79.7491 and 146.858 and 73.3036. The EC50 ([3]; T194A) was 235 nM, the “Span ± SEM (Emax normalized to β-PEA)” value ([3]; T194A) was 99.97 and the “pEC50 ± SEM” value ([3]; T194A) was 6.41 ± 0.14. For the same compound, the “cAMP accumulation response, individual replicate values of the concentration-response curve” value ([3]; M = -7.522) was 6.402 and 2.253 and 5.81 and 6.799 and 11.9487 and 8.441, the “cAMP accumulation response, individual replicate values of the concentration-response curve” value ([3]; M = -8) was 0.08035 and -1.303 and -0.1172 and 2.714 and 2.536 and 3.069 and the “cAMP accumulation response, individual replicate values of the concentration-response curve” value ([3]; M = -8.522) was -1.5 and -0.9074 and -0.5123 and 0.09457 and 0.1834 and 0.5385. For the same compound, the “cAMP accumulation response, individual replicate values of the concentration-response curve” value ([3]; M = -9) was -0.9074 and -1.303 (2×) and -1.015 and -1.326 and -0.3494, the “cAMP accumulation response, individual replicate values of the concentration-response curve” value ([3]; M = -9.522) was -2.093 (3×) and -0.6158 and -1.149 and -0.527 and the “cAMP accumulation response, individual replicate values of the concentration-response curve” value ([3]; M = -10) was -1.698 and -1.303 and -1.105 and -0.749 (2×) and -0.4382. For the same compound, the “cAMP accumulation response, individual replicate values of the concentration-response curve” value ([3]; M = -10.522) was -1.5 and -1.303 and -1.698 and -0.8822 and -1.326 and -0.971, the “cAMP accumulation response, individual replicate values of the concentration-response curve” value ([3]; M = -11) was -1.303 and -0.9074 and -0.3148 and -0.4826 and -0.9266 and 0.5385 and the “cAMP accumulation response, individual replicate values of the concentration-response curve” value ([3]; M = -11.522) was -1.303 (2×) and -0.9074 and -0.4382 and -0.7046 and -0.3938. For the same compound, the “cAMP accumulation response, individual replicate values of the concentration-response curve” value ([3]; M = -12) was -0.5123 and -1.105 and -1.5 and -0.4826 and -0.5714 and -0.6158, the “cAMP accumulation response, individual replicate values of the concentration-response curve” value ([3]; M = -12.522) was -0.3148 (2×) and -0.5123 and -0.5714 (2×) and -0.305 and the “ΔEmax values (each mutant value - WT average)” value ([4]; R83H mutant minus WT average) was -50.5458. The “Emax values, Mean” value ([4]; R83H mutant, β-PEA = 100, each line an independent experiment, 3 replicates) was 19.9005 and -6.007, the “Span ± SEM (Emax normalized to β-PEA)” value ([4]; R83H, n=2) was 6.95 ± 12.95 and the “Span ± SEM (Emax normalized to β-PEA)” value ([5]; V184P, n=2) was 70.26. The “pEC50 ± SEM” value ([5]; V184P, n=2) was 6.27 ± 0.05, the EC50 ([5]; V184P, n=2, read-out: EC50) was 539 nM and the “cAMP accumulation response, single replicate values (source data, Supplementary Figure 5)” value ([5]; M = -5) was 47.1774 and 43.1039 and 48.2443 and 102.347 and 62.5054 and 96.189. The “cAMP accumulation response, single replicate values (source data, Supplementary Figure 5)” value ([5]; M = -5.522) was 32.0474 and 39.1275 and 36.5088 and 86.7693 and 72.5115 and 76.5066, the “cAMP accumulation response, single replicate values (source data, Supplementary Figure 5)” value ([5]; M = -6) was 40.0973 and 27.683 and 25.5492 and 73.6844 and 54.6984 and 67.6001 and the “cAMP accumulation response, single replicate values (source data, Supplementary Figure 5)” value ([5]; M = -6.522) was 14.9776 and 12.068 and 13.8138 and 37.1052 and 29.2983 and 35.6391. For the same compound, the “cAMP accumulation response, single replicate values (source data, Supplementary Figure 5)” value ([5]; M = -7) was 5.085 and 5.182 and 3.9211 and 15.2237 and 21.0881 and 16.0667, the “cAMP accumulation response, single replicate values (source data, Supplementary Figure 5)” value ([5]; M = -7.522) was -0.4433 and -1.4132 and 0.1386 and 3.678 and 3.238 and 3.861 and the “cAMP accumulation response, single replicate values (source data, Supplementary Figure 5)” value ([5]; M = -8) was -0.9283 (2×) and -1.51 and 5.3642 and 2.908 and 3.861. For the same compound, the “cAMP accumulation response, single replicate values (source data, Supplementary Figure 5)” value ([5]; M = -8.522) was -1.316 and -1.607 and -1.51 and 1.809 and 2.2854 and 1.442, the “cAMP accumulation response, single replicate values (source data, Supplementary Figure 5)” value ([5]; M = -9) was -1.704 (2×) and -1.801 and 1.442 and -0.5735 and 0.4894 and the “cAMP accumulation response, single replicate values (source data, Supplementary Figure 5)” value ([5]; M = -9.522) was -1.4132 and -1.801 and -1.607 and 0.3795 and -0.4269 and 0.5994. The “cAMP accumulation response, single replicate values (source data, Supplementary Figure 5)” value ([5]; M = -10) was -1.51 and -1.801 (2×) and 1.149 and -0.207 and 0.01294, the “cAMP accumulation response, single replicate values (source data, Supplementary Figure 5)” value ([5]; M = -10.522) was -1.316 and -1.607 (2×) and -0.2803 and 0.08625 and -1.233 and the “cAMP accumulation response, single replicate values (source data, Supplementary Figure 5)” value ([5]; M = -11) was -1.801 and -1.122 and -1.4132 and 0.746 and 0.7093 and 0.1596. For the same compound, the “cAMP accumulation response, single replicate values (source data, Supplementary Figure 5)” value ([5]; M = -11.522) was -1.316 and -1.025 and -1.4132 and 0.636 and 1.039 and -0.3169, the “cAMP accumulation response, single replicate values (source data, Supplementary Figure 5)” value ([5]; M = -12) was -1.801 and -1.122 and -1.219 and -0.4635 and 0.9659 and -0.1337 and the “cAMP accumulation response, single replicate values (source data, Supplementary Figure 5)” value ([5]; M = -12.522) was -1.219 and -0.7343 and -1.607 and 0.0496 and -0.3536 and -0.6468. The “ΔpEC50 values (each mutant value - WT average), Mean” value ([5]; hTA1 V184P mutant minus WT average) was 0.071 and 0.2071, the “pEC50 values, Mean” value ([5]; hTA1 V184P mutant, Figure 3B source data, each grid row a separate experiment, 3 replicates) was 6.2 and 6.336 and the “Emax values, Mean” value ([5]; hTA1 V184P mutant, β-PEA set to 100, each grid row a separate experiment, 3 replicates) was 49.3182 and 91.2084.
